Laboratory results reported in patent publication US9834514B2, “Antibiotic sensitivity-restoring and photosensitive agents” (New Mexico Tech Research Foundation, priority 2015, dated 2017).
Converted amounts (≈) assume the structure as drawn.

Tests used:
[1] = system: MRSA (ATCC No. BAA-44); assay: Potentiation of antibiotic activity with 10 μM compound 1 (CFU/mL); assay type: cell-based, S. aureus
Procedure: The MICs for the antibiotics in the absence of compound 1 were calculated by adjusting the cells to 5×10^5 CFU/mL with McFarland Turbidity Standard (0.5) followed by the addition of an antibiotic. The cells were then incubated at 37° C. for 18 hours on a rotary shaking incubator at 100 rpm. Finally, MTT was added to the cells to assess viability.
To assess the potentiation of antibiotic activity, the cells were adjusted to 5×10^5 CFU/mL with McFarland Turbidity Standard (0.5). Compound 1 was then added at 10 μM, and the cells were incubated at 37° C. for 45 minutes. The desired antibiotic was then added at three sub-inhibitory concentrations, and the cells were incubated at 37° C. for 18 hours on a rotary shaking incubator at 100 rpm. The samples were then diluted ten-fold, drip streaked onto a TSA plate, and incubated for 18 hours at 37° C. The resulting cell colonies were counted, and the CFU/mL values were calculated.

[2] = system: MRSA (ATCC No. BAA-44); assay: Synergy of compound 1 with antibiotics, isobologram; assay type: cell-based, S. aureus; details: vancomycin, tetracycline, doxycycline, norfloxacin, dicloxicillin, oxacillin, penicillin G, tobramycin; FIGS. 14, 15
From the text: The synergy of two compounds with varying relative potencies can be represented using an isobologram. An isobologram plots the normalized effective concentrations of each drug on each axis, where the sum of the two concentrations equals the line of additivity. Outside the line of additivity, when the sum>1, the effect of the two drugs is considered antagonistic; inside of the line of additivity, when the sum<1, the effect of the two drugs is considered superadditive, or when the sum≦0.5, the effect of the two drugs is considered synergistic.
An illustrative example based on a single data point for each antibiotic in combination with compound 1 against MRSA (ATCC No. BAA-44) is shown in FIG. 14. A zoomed-in isobologram for the same data as shown in FIG. 14 is depicted in FIG. 15 specifically for the synergistic area.

[3] = system: efflux pumps of MRSA; assay: Fluorescent competition assay of compound 1 versus INF-55 and reserpine; assay type: binding; details: compound 1 at 5 μM
Procedure: INF-55 and reserpine, NorA EPIs, were used to compete with compound 1 for binding sites on MRSA. Since compound 1 is highly fluorescent, binding could be assessed by measuring the fluorescence at excitation wavelengths of 345 nm, 380 nm, 407 nm, and an emission wavelength of 508 nm. Fluorescent readings were taken every minute for 30 minutes at a lamp energy of 20,000 CW. MRSA cells (about 10^8 CFU/mL) were pelleted at 7500 rpm and resuspended in 1×PBS. The MRSA cells were then pretreated with the appropriate EPI at varying concentrations and incubated for 30 minutes at 37° C. at 150 rpm on a rotary shaker.
INF-55 (FIG. 2) and reserpine (FIG. 3) were added at 1 μM, 10 μM, 50 μM, and 100 μM. After incubation with the appropriate EPI, compound 1 was added at 5 μM and the samples were incubated for 10 minutes. The samples were then placed in a fluorescent plate reader for analysis. The controls used were as follows: 1×PBS, compound 1 (5 μM) in 1×PBS, each respective concentration of the EPI in 1×PBS, compound 1 (5 μM) added to MRSA cells, and each respective EPI added to MRSA cells. The instrument baseline fluorescence drift was corrected by subtracting the fluorescence measured at each time point for the 1×PBS control sample. The error bars represent data from three independent measurements.

[4] = biological target: T1, NorA efflux pumps in MRSA (Staphylococcus aureus, UniProt P0A0J7); assay: Fluorescent binding assay of compound 1 with MRSA and S. aureus; details: 1 μM and 10 μM; MRSA compared to S. aureus; FIG. 1
T1 construct: endogenous in cells
T1 sequence (P0A0J7 whole entry): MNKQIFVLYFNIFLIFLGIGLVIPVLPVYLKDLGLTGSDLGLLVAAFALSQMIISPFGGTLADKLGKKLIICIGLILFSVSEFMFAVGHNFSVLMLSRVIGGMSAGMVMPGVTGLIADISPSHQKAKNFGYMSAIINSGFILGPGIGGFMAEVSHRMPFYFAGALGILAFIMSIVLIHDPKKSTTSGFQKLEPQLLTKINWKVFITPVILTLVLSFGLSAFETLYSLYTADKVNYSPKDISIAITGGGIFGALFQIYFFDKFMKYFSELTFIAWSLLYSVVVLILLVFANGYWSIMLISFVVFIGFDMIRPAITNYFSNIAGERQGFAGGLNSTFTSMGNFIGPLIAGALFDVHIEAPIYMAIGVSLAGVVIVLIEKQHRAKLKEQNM
Procedure: The error bars represent data from three independent measurements.
S. aureus and MRSA cells (about 10^8 CFU/mL) were treated with two doses of compound 1 (1 μM and 10 μM), and the cells were incubated at 37° C. for 15 minutes on a rotary shaker set at 150 rpm. After the incubation, the cells were transferred to a 96-well fluorescent plate reader and read every minute for 30 minutes at excitation wavelengths of 334 nm, 380 nm, and 407 nm, and an emission wavelength of 508 nm. The controls were: 1×PBS, compound 1 (1 μM and 10 μM) in 1×PBS, S. aureus in 1×PBS, and MRSA in 1×PBS.

[5] = system: S. pyogenes ATCC 8133; assay: Resensitization to antibiotics (log reduction, TABLE 29); assay type: cell-based; details: compound 1 μM; Light (2 min)
[6] = system: S. pyogenes (ATCC No. 8133); assay: MIC against S. pyogenes; assay type: cell-based; details: Streptococcus pyogenes, ATCC8133; compound alone
From the text: The error bars in FIG. 12 represent the variations between three replicate determinations.

[7] = system: MRSA; assay: Checkerboard assay (FICI); assay type: cell-based, S. aureus
Procedure: Another method for determining synergy is a checkerboard assay. A checkerboard assay is performed whereby one of the test compounds is serially diluted horizontally across a plate, while the other test compound is serially diluted vertically down the plate. The perpendicular serial dilutions result in combinations of the compounds that range in concentrations from the highest to the lowest of each compound added. In the present study, the checkerboard assay method was adjusted by serially diluting one of the test compounds horizontally and adding the second drug to each well at a concentration of ¼ MIC. The 24-well microtiter plate was then incubated at 37° C. for 18-24 hours on a rotary shaker incubator at 150 rpm. After incubation, MTT reagent was added to each well at a 10% sample volume. Synergy was determined on the lowest concentration of the combined drugs, which produced no purple coloring. Calculation of synergy was determined by the Fractional Inhibitory Concentration Index (FICI): FICI=([Drug 1]Synergy/[Drug1]MIC)+([Drug 2]Synergy/[Drug 2]MIC). FICI≦0.5 is an indication of synergy.
TABLE 17 details the obtained FICI values for compound 1 in combination with varying antibiotics against MRSA, A. baumannii, and E. coli.

With `Clc1ccc(/C=C/c2[nH]c3ccccc3c2/C=C/c2ccc(Cl)cc2)cc1` [Compound 1] the “potentiation of tetracycline (CFU/mL)” value ([1]; FIG. 18) was “tetracycline was more efficacious in cell killing in the presence of compound 1”, the “potentiation of doxycycline (CFU/mL)” value ([1]; FIG. 19) was “doxycycline was more efficacious in cell killing in the presence of compound 1” and the “potentiation of norfloxacin (CFU/mL)” value ([1]; FIG. 20) was “norfloxacin was more efficacious in cell killing in the presence of compound 1”. For the same compound, the “potentiation of dicloxicillin (CFU/mL)” value ([1]; FIG. 21) was “dicloxicillin was more efficacious in cell killing in the presence of compound 1”, the “potentiation of oxacillin (CFU/mL)” value ([1]; FIG. 22) was “oxacillin was more efficacious in cell killing in the presence of compound 1” and the “potentiation of penicillin G (CFU/mL)” value ([1]; FIG. 23) was “penicillin G was more efficacious in cell killing in the presence of compound 1”. The “potentiation of tobramycin (CFU/mL)” value ([1]; FIG. 24) was “tobramycin was more efficacious in cell killing in the presence of compound 1”, the “potentiation of vancomycin (CFU/mL)” value ([1]; FIG. 25) was “vancomycin was more efficacious in cell killing in the presence of compound 1” and the “synergy with antibiotics (isobologram)” value [2] was “able to synergize with every tested antibiotic”. For the same compound, the “competition with INF-55 for binding (fluorescence)” value ([3]; INF-55 1-100 μM, FIG. 2) was “able to compete with INF-55 for binding to the efflux pumps of MRSA”, the “competition with reserpine for binding (fluorescence)” value ([3]; reserpine 1-100 μM, FIG. 3) was “able to compete with reserpine for binding to the efflux pumps of MRSA” and the “binding of compound 1 by cells (fluorescence)” value [4] was “MRSA was able to bind more of compound 1”. For the same compound, the “Log Reduction” value [5] was 6-7, the MIC [6] was 100 µM (≈ 39 µg/mL) and the “FIC Index” value ([7]; with Amoxicillin) was 0.3. For the same compound, the “FIC Index” value ([7]; with Ampicillin) was 0.13, the “FIC Index” value ([7]; with Dicloxicillin) was 0.04 and the “FIC Index” value ([7]; with Norfloxacin) was 0.3. The “FIC Index” value ([7]; with Tetracycline) was 0.4.
